Patent publication US11571444B2, “Enhancement of MSC immunomodulatory properties by treprostinil” (United Therapeutics Corporation, priority 2016, dated 2023)

How the values were obtained:
[1] = tested on: human bone marrow-derived MSC; experiment: MSC morphology after 48 hours exposure (cytotoxic effect); format: cell-based; conditions: 48 hours of culture
Experimental: (§1) A single vial of human bone marrow-derived MSC was expanded and seeded using standard growth medium. At 95-99% confluency, cells were thoroughly washed with phosphate-buffered saline (PBS) and exposed to media containing treprostinil at doses ranging from 250 μg/mL to 0.004 μg/mL. After 48 hours of culture, cells were photographed and assessed for treatment-induced changes in morphology.

TNFα expression in MSC = experiment: RNA analysis of pro-inflammatory cytokine TNFα in exposed MSC; format: cell-based, human; conditions: 48 hours
Experimental: as §1
(§2) Cells exposed to treprostinil ranging from 250 μg/mL-0.004 μg/mL as described in Example 1 were harvested. RNA of the cells was extracted and then analyzed for pro- and anti-inflammatory cytokines. Cytokines, or small proteins involved in both internal and secreted cell signaling, have been identified to play a role in the inflammatory pathogenesis of PAH (Groth et al., Respiratory Research, 15:47 (2014)).

IL10 expression in MSC = experiment: RNA analysis of anti-inflammatory cytokine IL10 in exposed MSC; format: cell-based, human; conditions: 48 hours
Experimental: as §1, §2

IL13 expression in MSC = experiment: RNA analysis of anti-inflammatory cytokine IL13 in exposed MSC; format: cell-based, human; conditions: 48 hours
Experimental: as §1, §2

IDO1 expression in MSC = experiment: RNA analysis of immunosuppressive factor IDO1 in exposed MSC; format: cell-based, human; conditions: 48 hours
Experimental: as §1
(§3) RNA from MSCs exposed to treprostinil of from 250 μg/mL to 0.004 μg/mL was re-analyzed for several other anti-inflammatory factors.

iNOS expression in MSC = experiment: RNA analysis of immunosuppressive factor iNOS in exposed MSC; format: cell-based, human; conditions: 48 hours
Experimental: as §1, §3

HLA expression in MSC = experiment: RNA analysis of immunosuppressive factor HLA in exposed MSC; format: cell-based, human; conditions: 48 hours
Experimental: as §1, §3

TGFβ expression in MSC = experiment: RNA analysis of immunosuppressive factor TGFβ in exposed MSC; format: cell-based, human; conditions: 48 hours
Experimental: as §1, §3

CCCCC[C@H](O)CC[C@@H]1[C@H]2Cc3cccc(OCC(=O)O)c3C[C@H]2C[C@H]1O [treprostinil]
MSC morphology (cytotoxic effect) ([1]; 83.3 μg/mL or lower): did not cause morphological changes associated with cell death
MSC morphology (cytotoxic effect) ([1]; 250 μg/mL): rounded up and detached
lowering of TNFα expression compared to control (TNFα expression in MSC; 0.3 μg/mL to 83.3 μg/mL): up to 4.7 fold
TNFα over unexposed control (TNFα expression in MSC; 9.3 μg/mL): decreased
increase of IL10 expression in MSC (IL10 expression in MSC; 9.3 μg/mL): 5.4 fold
IL10 signaling over control (IL10 expression in MSC; increasing doses): increase
IL13 over unexposed control (IL13 expression in MSC; 9.3 μg/mL): increased
increase of IL13 expression in MSC (IL13 expression in MSC; 27.8 μg/mL): 8.8 fold
IL13 signaling over control (IL13 expression in MSC; increasing doses): increase
IDO over unexposed control (IDO1 expression in MSC; 9.3 μg/mL): increased
IDO1 over control (IDO1 expression in MSC; increasing doses): robust increase
iNOS over unexposed control (iNOS expression in MSC; 9.3 μg/mL): increased
iNOS over control (iNOS expression in MSC; increasing doses): robust increase
HLA over unexposed control (HLA expression in MSC; 9.3 μg/mL): increased
HLA over control (HLA expression in MSC; increasing doses): robust increase
TGFβ over unexposed control (TGFβ expression in MSC; 9.3 μg/mL): increased
TGFβ over control (TGFβ expression in MSC; increasing doses): robust increase
